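Interpolation was linear, between the two tested concentrations surrounding the appropriate level; five concentrations were tested over 48 hours in 96-well plates. The concentration for 50% growth inhibition is given as GI50. TGI: total growth inhibition.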
Columns and labels:
Assay in all cases: inhibition of tumour cell growth, NCI panel, 48 h
[1] = system: A498 renal
[2] = system: HCC-2998 colon
[3] = system: MALME-3M melanoma
[4] = system: MOLT-4 leukemia
[5] = system: NCI-H460 lung
[6] = system: NCI-H522 lung
[7] = system: OVCAR-8 ovarian
[8] = system: SK-MEL-2 melanoma
[9] = system: SW-620 colon
[10] = system: TK-10 renal

Compound	GI50 [1]	TGI [1]	GI50 [2]	TGI [2]	GI50 [3]	TGI [3]	GI50 [4]	TGI [4]	GI50 [5]	TGI [5]	GI50 [6]	TGI [6]	GI50 [7]	TGI [7]	GI50 [8]	TGI [8]	GI50 [9]	TGI [9]	GI50 [10]	TGI [10]
COc1ccc2c(c1)cn1c3ccc(O)cc3nc(N)c21	0.498 µM	17.4 µM	0.626 µM	5.24 µM	0.0714 µM	23.2 µM	1.18 µM	21.7 µM	0.131 µM	14.7 µM	0.111 µM	2.22 µM	0.375 µM	4.92 µM	0.27 µM	5.14 µM	0.0388 µM	5.82 µM	1.13 µM	5.6 µM
Oc1cccc2ccc(N/N=C/c3cc(CN4CCCCC4)c(O)c4ncccc34)nc12	0.433 µM	14.1 µM	0.0499 µM	1.76 µM	0.223 µM	4.49 µM	0.0597 µM	3.82 µM	0.0386 µM	1.67 µM	0.0314 µM	1.21 µM	0.0508 µM	2.06 µM	0.0288 µM	0.0814 µM	0.0362 µM	3.52 µM	0.0527 µM	11 µM
NCCn1c(=O)[nH]c(=O)[nH]c1=S	> 100 µM	> 100 µM	> 100 µM	> 100 µM	> 100 µM	> 100 µM	> 100 µM	> 100 µM	39.2 µM	> 100 µM	> 100 µM	> 100 µM	> 100 µM	> 100 µM	> 100 µM	> 100 µM	> 100 µM	> 100 µM	> 100 µM	> 100 µM
C[C@@H]1C[C@H]2CC[C@H](O2)[C@H](C)C(=O)O[C@@H](C)C[C@@H]2CC[C@@H](O2)[C@@H](C)C(=O)O[C@H](C)C[C@H]2CC[C@H](O2)[C@H](C)C(=O)O[C@@H](C)C[C@@H]2CC[C@@H](O2)[C@@H](C)C(=O)O1		> 19.7 µM		> 27.8 µM		2.67 µM		22 µM		> 100 µM		0.68 µM		> 44.6 µM		3.34 µM		> 100 µM		> 48.5 µM
Cc1ccc(NC(=O)C(=O)C(C#N)c2ccccc2C)cc1C (stereo not given)		> 100 µM		> 82 µM		> 100 µM		> 100 µM		> 79.9 µM		> 100 µM		> 100 µM		> 100 µM		> 61.3 µM		> 100 µM
O=C1c2cccnc2C(=O)c2nc3cc(N4CCN(C5CC5)CC4)ccc3nc21	1.34 µM	2.91 µM	0.49 µM	1.83 µM	0.178 µM	0.457 µM	2.4 µM	5.62 µM	0.137 µM	0.352 µM	0.238 µM	1.36 µM	1.68 µM	11.2 µM	1.61 µM	4.22 µM	0.409 µM	1.94 µM	2.19 µM	7.81 µM
CC1OC(O[C@@H]2OC=C(C=O)[C@@]3(O)CC[C@H](C)[C@@H]23)C(O)C(O)C1O (stereo not given in full)		> 100 µM		> 100 µM		> 100 µM		> 100 µM		> 100 µM		> 100 µM		> 100 µM		> 100 µM		> 100 µM		> 100 µM
CCCCCCCCCCCC(=O)OCC1OC(n2cc(F)c(=O)[nH]c2=O)C(NC(=O)OCc2ccccc2)C(OC(=O)CCCCCCCCCCC)C1O (stereo not given)		> 100 µM		> 100 µM		> 100 µM		> 100 µM		> 100 µM		> 100 µM		> 100 µM		> 100 µM		> 100 µM		> 100 µM
O=[N+]([O-])C1C2C=CC(C2)[C@H]1c1ccco1 (stereo not given in full)		> 100 µM		> 100 µM		> 100 µM		> 100 µM		> 100 µM		> 100 µM		> 100 µM		> 100 µM		> 100 µM		> 100 µM
CC[C@@H](C(=O)O)C1CC[C@H](C)C([C@@H](C)[C@H](O)[C@H](C)C(=O)[C@H](CC)C2O[C@]3(C=C[C@@H](O)[C@]4(CC[C@@](C)(C5CC[C@](O)(CC)[C@H](C)O5)O4)O3)[C@H](C)C[C@@H]2C)O1 (stereo not given in full)	0.0458 µM	0.799 µM	0.13 µM	7.52 µM	0.226 µM	1.37 µM	1.47 µM	5.92 µM	0.383 µM	10.5 µM	0.0785 µM	1.78 µM	1.21 µM	37.4 µM	0.981 µM	7.53 µM	1.33 µM	8.93 µM	0.987 µM	39.4 µM
Cn1cccc1-c1cc(-c2cccs2)nc(N)c1C#N	> 100 µM	> 100 µM	> 100 µM	> 100 µM	> 100 µM	> 100 µM	> 100 µM	> 100 µM	> 100 µM	> 100 µM	> 100 µM	> 100 µM	> 100 µM	> 100 µM	> 100 µM	> 100 µM	> 100 µM	> 100 µM	> 100 µM	> 100 µM
COc1ccc(/C(C#N)=C/c2ccccc2OC)cc1	5.37 µM	> 100 µM	14.5 µM	> 100 µM	17.1 µM	> 100 µM	5.49 µM	> 100 µM	5.89 µM	> 100 µM	4.85 µM	32.3 µM	25.2 µM	> 100 µM	4.68 µM	32.9 µM	3.78 µM	> 100 µM	12.4 µM	> 100 µM
Cn1cc(-c2ccc3occ(-c4cccc(-c5ccncc5)c4)c3n2)cn1	0.159 µM	0.832 µM	1.74 µM	> 100 µM	1.19 µM	> 100 µM	0.582 µM	> 100 µM	0.381 µM	> 100 µM	0.594 µM	12.1 µM	1.31 µM	> 100 µM	0.758 µM	> 100 µM	0.435 µM	> 100 µM	2.1 µM	> 100 µM
C#CCOCn1cnc2c(Cl)ncnc21		> 100 µM		> 100 µM		> 100 µM		> 100 µM		> 100 µM		> 100 µM		> 100 µM		> 100 µM		> 100 µM		> 100 µM

From PubChem BioAssay (NCI)
